Test [1] concerns CD8+ T lymphocytes in the liver tumor microenvironment. Put plainly: Relative amount of CD8+ T lymphocytes in the tumor microenvironment by flow cytometry. Format: in vivo, C57BL/6 mice. Particulars: for increase of relative amount of CD8+ T lymphocytes in the liver tumor microenvironment: one typical mouse per group, FIG. 6. From the text:
Experimental animals: Twenty-seven C57BL/6 mice aged 3 to 4 weeks old in good mental state were purchased from the Experimental Animal Center of Sun Yat-sen University. The mice were randomly divided into 3 groups, nine mice for each group, and the 3 groups were a control group (the first group), a pantothenic acid group (the second group) and a Vitamin E control group (the third group) respectively. The 3 groups of mice were continually administered by gavage with pure water, pantothenic acid (at a concentration of 0.02 g/ml, purchased from the Sigma official website) and Vitamin E (at a concentration of 0.02 g/ml, purchased from the Sigma official website) for 3 to 4 weeks, respectively. After the mouse tumor (liver cancer) cells HEPA1-6 grew at logarithmic phase, they were digested with trypsin, and culture medium was neutralized. After centrifugation, the cells were collected, washed twice with DPBS to remove residual serum. Finally, the cells were redissolved with DPBS. After cell counting was completed, each mouse was subcutaneously inoculated with 10^6 cells into right axilla and continually treated by gavage, respectively, and the tumor-bearing mice were killed after 2 to 3 weeks. After dissection, the sizes of the subcutaneously transplanted tumors were measured, and the tumor cells were collected in situ. A relative amount of the CD8^+ T lymphocytes in the tumor microenvironment was detected and analyzed by flow cytometry.
A general note: Flow cytometry measures light scatter and fluorescence of single cells or particles in a stream.

The test system of test [2] is liver cancer cells (HEPA1-6) transplanted tumors. Put plainly: Pantothenic acid for tumor prevention and treatment in mice: size of subcutaneously transplanted tumors. In kind it is in vivo, C57BL/6 mice. Conditions: gavage 0.02 g/ml; HEPA1-6 subcutaneous tumor; p<0.01; FIG. 4 and FIG. 5. From the text:
FIG. 3 is a schematic diagram of the experimental procedure for detecting pantothenic acid, the metabolite of the intestinal bacteria to enhance an accumulation of CD8^+ cytotoxic T cells in the tumor microenvironment and to treat tumors in a mouse model of liver cancer. That is, an experimental procedure of administering pantothenic acid to mice subcutaneously transplanted with liver cancer cells (HEPA1-6). The time is expressed in days (Day, d) for administering pantothenic acid or for transplanting tumor cells.
Experimental animals: Twenty-seven C57BL/6 mice aged 3 to 4 weeks old in good mental state were purchased from the Experimental Animal Center of Sun Yat-sen University. The mice were randomly divided into 3 groups, nine mice for each group, and the 3 groups were a control group (the first group), a pantothenic acid group (the second group) and a Vitamin E control group (the third group) respectively. […] After dissection, the sizes of the subcutaneously transplanted tumors were measured, and the tumor cells were collected in situ. A relative amount of the CD8^+ T lymphocytes in the tumor microenvironment was detected and analyzed by flow cytometry.

We go through one compound from patent US20220202754A1, “USES OF PANTOTHENIC ACID IN PREPARATION OF A COMPOSITION FOR TREATING AND/OR PREVENTING TUMORS” (REVAISSANT (SHENZHEN) BIOSCIENCES CO., LTD., priority 2019, published 2022).

The structures appear in SMILES notation.

With `CC(C)(CO)[C@@H](O)C(=O)NCCC(=O)O` [pantothenic acid], the “relative amount of CD8+ T lymphocytes in the tumor microenvironment (percentage of total cells)” value in test [1] (compared with pure water control group and Vitamin E control group, statistical analysis, p<0.05, FIG. 7) was “significantly increases”. The “increase of relative amount of CD8+ T lymphocytes in the liver tumor microenvironment” value is given as “more than 3 times” in test [1] (compared with the Vitamin E control group) and “more than 7 times” in test [1] (compared with the pure water control group). For the same compound, the “reduction of size of liver cancer cell transplanted tumors” value in test [2] is “about 80%”.
